In this assay the test system is P388 leukemia ip, CD2F1 mice, survival T/C. In words: NCI In Vivo Anticancer Drug Screen. Data for tumor model P388 Leukemia (intraperitoneal) in CD2F1 (CDF1) mice. The settings on record: endpoint: median survival time, higher = longer survival. An outline of the steps: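 Mice carrying the transplanted tumor received test compound or vehicle. Survival was recorded in each group, and the value is the treated-group measurement divided by that of the vehicle-treated control group.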

Where [1] appears, read: dose: 50.0 mg/kg/injection, schedule: Q01DX009 (ip), vehicle: saline with Tween-80.
The mark [2] stands for this setting: dose: 100.0 mg/kg/injection, schedule: Q01DX009 (ip), vehicle: saline with Tween-80.
Where [3] appears, read: dose: 200.0 mg/kg/injection, schedule: Q01DX009 (ip), vehicle: saline with Tween-80.
[4] abbreviates: dose: 50.0 mg/kg/injection, schedule: Q01DX005 (ip), vehicle: saline with Tween-80.
Where [5] appears, read: dose: 50.0 mg/kg/injection, schedule: Q01DX005 (ip), vehicle: Klucel (hydroxypropylcellulose) (HPC).
Setting [6] is: dose: 100.0 mg/kg/injection, schedule: Q01DX005 (ip), vehicle: Klucel (hydroxypropylcellulose) (HPC).
Setting [7] is: dose: 200.0 mg/kg/injection, schedule: Q01DX005 (ip), vehicle: Klucel (hydroxypropylcellulose) (HPC).
[8] abbreviates: dose: 60.0 mg/kg/injection, schedule: Q01DX005 (ip), vehicle: saline with Tween-80.
The mark [9] stands for this setting: dose: 120.0 mg/kg/injection, schedule: Q01DX005 (ip), vehicle: saline with Tween-80.

The structures appear in SMILES notation. Several values for one entry are separate records, joined by “and”; a condition that tells them apart may be missing. Equal values may be shown once. Inconclusive results and toxic doses are left out.

Take `Cc1ccccc1CS`: the T/C was 113 % of control under setting [1], 113 % of control under setting [2] and 113 % of control under setting [3].

As for `CCCOC1C=C(C)C(=O)O1` (configuration not stated), the T/C is 103 % of control (dose: 40.5 mg/kg/injection, schedule: Q01DX005 (ip), vehicle: saline with Tween-80); 104 % of control (dose: 81.0 mg/kg/injection, schedule: Q01DX005 (ip), vehicle: saline with Tween-80); 112 % of control (dose: 162.0 mg/kg/injection, schedule: Q01DX005 (ip), vehicle: saline with Tween-80).

As to `CC(C)NCCCC(=O)O`, the T/C runs as follows: (dose: 25.0 mg/kg/injection, schedule: Q01DX009 (ip), vehicle: water) 101 % of control; (dose: 50.0 mg/kg/injection, schedule: Q01DX009 (ip), vehicle: water) 99 % of control; (dose: 100.0 mg/kg/injection, schedule: Q01DX009 (ip), vehicle: water) 109 % of control; (dose: 200.0 mg/kg/injection, schedule: Q01DX009 (ip), vehicle: water) 96 % of control; (dose: 400.0 mg/kg/injection, schedule: Q01DX009 (ip), vehicle: water) 90 % of control.

Regarding `COc1ccc(CSC(=S)Nc2ccc(Cl)c([N+](=O)[O-])c2)cc1`, the T/C (dose: 50.0 mg/kg/injection, schedule: Q01DX009 (ip), vehicle: suspension in saline) was 108 % of control; the T/C (dose: 100.0 mg/kg/injection, schedule: Q01DX009 (ip), vehicle: suspension in saline) was 99 % of control; the T/C (dose: 200.0 mg/kg/injection, schedule: Q01DX009 (ip), vehicle: suspension in saline) is 99 % of control.

As for `COc1cc2c(cc1CN(C)C)[nH]c1c3ccc(Cl)cc3ncc21`, the T/C (dose: 12.5 mg/kg/injection, schedule: Q01DX005 (ip), vehicle: saline with Tween-80) was 104 % of control; the T/C (dose: 25.0 mg/kg/injection, schedule: Q01DX005 (ip), vehicle: saline with Tween-80) is 103 % of control; the T/C under setting [4] is 109 % of control and 112 % of control.

As for `O=C(O)c1nn(-c2ccc(Cl)cc2)c2c1C(=O)c1ccccc1C2=O`, the T/C by setting is: (dose: 12.5 mg/kg/injection, schedule: Q01DX005 (ip), vehicle: Klucel (hydroxypropylcellulose) (HPC)) 98 % of control; (dose: 25.0 mg/kg/injection, schedule: Q01DX005 (ip), vehicle: Klucel (hydroxypropylcellulose) (HPC)) 91 % of control; under setting [5], 98 % of control and 89 % of control; under setting [6], 92 % of control; under setting [7], 103 % of control.

For `CSCCCNCc1ccc([N+](=O)[O-])cc1`, the T/C by setting is: (dose: 50.0 mg/kg/injection, schedule: Q01DX005 (ip), vehicle: saline) 97 % of control; (dose: 100.0 mg/kg/injection, schedule: Q01DX005 (ip), vehicle: saline) 111 % of control.

Consider `O=c1[nH]cccc1O`, for which the T/C reads like this: (dose: 16.0 mg/kg/injection, schedule: Q01DX009 (ip), vehicle: saline with Tween-80) 115 % of control; (dose: 32.0 mg/kg/injection, schedule: Q01DX009 (ip), vehicle: saline with Tween-80) 122 % of control; (dose: 50.0 mg/kg/injection, schedule: Q01DX009 (ip), vehicle: Klucel (hydroxypropylcellulose) (HPC)) 109 % of control and 113 % of control; (dose: 50.0 mg/kg/injection, schedule: Q01DX009 (ip), vehicle: saline) 105 % of control and 110 % of control; (dose: 64.0 mg/kg/injection, schedule: Q01DX009 (ip), vehicle: saline with Tween-80) 112 % of control; (dose: 100.0 mg/kg/injection, schedule: Q01DX009 (ip), vehicle: saline) 100 % of control and 111 % of control. The T/C is 112 % of control and 115 % of control (dose: 200.0 mg/kg/injection, schedule: Q01DX009 (ip), vehicle: saline); 98 % of control (dose: 400.0 mg/kg/injection, schedule: Q01DX009 (ip), vehicle: Klucel (hydroxypropylcellulose) (HPC)); 153 % of control (dose: 512.0 mg/kg/injection, schedule: Q01DX009 (ip), vehicle: saline with Tween-80).

As for `CCOC1(C)OC2OC(COC(C)=O)C(OC(C)=O)C(OC(N)=O)C2O1` (configuration not stated), the T/C is, setting by setting: under setting [4], 97 % of control; (dose: 100.0 mg/kg/injection, schedule: Q01DX005 (ip), vehicle: saline with Tween-80) 92 % of control; (dose: 200.0 mg/kg/injection, schedule: Q01DX005 (ip), vehicle: saline with Tween-80) 92 % of control.

Take `CC(C)=CC(=O)O`: the T/C under setting [1] was 99 % of control; the T/C under setting [2] was 101 % of control; the T/C under setting [3] is 100 % of control; the T/C (dose: 400.0 mg/kg/injection, schedule: Q01DX009 (ip), vehicle: saline with Tween-80) was 90 % of control.

Regarding `CC(=Nc1c(Cl)c(Cl)c2c(c1Cl)C(=O)c1cc(Cl)ccc1-2)NO`, the T/C was 97 % of control under setting [8]; 104 % of control under setting [9]; 95 % of control (dose: 240.0 mg/kg/injection, schedule: Q01DX005 (ip), vehicle: saline with Tween-80).

As for `NC(CS)=NCC12CC3CC(CC(C3)C1)C2`, the T/C runs as follows: (dose: 7.5 mg/kg/injection, schedule: Q01DX005 (ip), vehicle: saline with Tween-80) 100 % of control; (dose: 15.0 mg/kg/injection, schedule: Q01DX005 (ip), vehicle: saline with Tween-80) 100 % of control; (dose: 30.0 mg/kg/injection, schedule: Q01DX005 (ip), vehicle: saline with Tween-80) 115 % of control.

In the case of `Clc1ccc(Nc2nnc(-c3ccc4c(c3)OCO4)o2)cc1`, the T/C by setting is: under setting [5], 93 % of control; under setting [6], 101 % of control; under setting [7], 93 % of control.

Regarding `CC1=C2CCC(O)C2(C)CCC(=O)C1` (configuration not stated), the T/C (dose: 100.0 mg/kg/injection, schedule: Q04DX003 (ip), vehicle: Klucel (hydroxypropylcellulose) (HPC)) was 105 % of control and the T/C (dose: 200.0 mg/kg/injection, schedule: Q04DX003 (ip), vehicle: Klucel (hydroxypropylcellulose) (HPC)) is 99 % of control.

As for `Nc1ccc2nc3ccc(N)cc3[n+](-c3ccccc3)c2c1`, the T/C is, setting by setting: (dose: 0.39 mg/kg/injection, schedule: Q04DX003 (ip), vehicle: saline) 100 % of control; (dose: 0.78 mg/kg/injection, schedule: Q04DX003 (ip), vehicle: saline) 95 % of control; (dose: 1.56 mg/kg/injection, schedule: Q04DX003 (ip), vehicle: saline) 95 % of control; (dose: 3.13 mg/kg/injection, schedule: Q04DX003 (ip), vehicle: saline) 95 % of control; (dose: 6.25 mg/kg/injection, schedule: Q04DX003 (ip), vehicle: saline) 95 % of control; (dose: 8.0 mg/kg/injection, schedule: Q01DX009 (ip), vehicle: saline with Tween-80) 154 % of control. Also, the T/C was 154 % of control (dose: 12.0 mg/kg/injection, schedule: Q01DX009 (ip), vehicle: saline with Tween-80); 95 % of control (dose: 12.5 mg/kg/injection, schedule: Q04DX003 (ip), vehicle: saline); 86 % of control (dose: 18.0 mg/kg/injection, schedule: Q01DX009 (ip), vehicle: saline with Tween-80).

Take `CCOP(O)(=S)OCC.[Y]`: the T/C by setting is: (dose: 50.0 mg/kg/injection, schedule: Q01DX001 (ip), vehicle: Klucel (hydroxypropylcellulose) (HPC)) 90 % of control; (dose: 100.0 mg/kg/injection, schedule: Q01DX001 (ip), vehicle: Klucel (hydroxypropylcellulose) (HPC)) 87 % of control; (dose: 200.0 mg/kg/injection, schedule: Q01DX001 (ip), vehicle: Klucel (hydroxypropylcellulose) (HPC)) 95 % of control.

Regarding `C1CCC2(CC1)C[Se]C2`, the T/C reads like this: (dose: 7.5 mg/kg/injection, schedule: Q01DX009 (ip), vehicle: saline with Tween-80) 108 % of control; (dose: 15.0 mg/kg/injection, schedule: Q01DX009 (ip), vehicle: saline with Tween-80) 113 % of control; (dose: 30.0 mg/kg/injection, schedule: Q01DX009 (ip), vehicle: saline with Tween-80) 105 % of control.

Consider `CN(C)c1nc(=O)c2cc(Br)ccc2o1`, for which the T/C runs as follows: (dose: 60.0 mg/kg/injection, schedule: Q01DX005 (ip), vehicle: Klucel (hydroxypropylcellulose) (HPC)) 96 % of control; (dose: 120.0 mg/kg/injection, schedule: Q01DX005 (ip), vehicle: Klucel (hydroxypropylcellulose) (HPC)) 100 % of control.

With `CNC(=O)N(N=O)c1[nH]c(=O)ncc1Cl`, the T/C reads like this: under setting [8], 116 % of control; under setting [9], 116 % of control.

Regarding `CC(CN(C)C)C(=O)/C=C/c1ccc(F)c(F)c1` (configuration not stated), the T/C (dose: 60.0 mg/kg/injection, schedule: Q01DX005 (ip), vehicle: saline) was 100 % of control and 103 % of control; the T/C (dose: 120.0 mg/kg/injection, schedule: Q01DX005 (ip), vehicle: saline) was 116 % of control and 124 % of control.

The values are drawn from PubChem BioAssay AID330 (DTP/NCI, 2004).
